Source: US20250179033A1 (priority 2021, published 2025)
Like-named read-outs stand apart in the source and are kept apart here.

Experiments:
Assay type in all cases: cell-based
[1] = test system: HIV-1 IIIB (wild-type); assay: HIV inhibition assay in TZM-bl cells, wild-type; settings: Human immunodeficiency virus 1, IIIB, read-out: IC50 (TZM, WT)
Procedure: (§1) Cells and virus culture: TZM-bl cells (42), HIV-1 IIIB virus (43-45) and HIV-1 IIIB (A17 variant) virus (46) as well are the NNRTI resistant mutants (strain NL4-3) (47) were obtained from the NIH HIV Reagent Program. H9 [derivative of HuT 78]cells (ATCC® HTB176™) were obtained from the American Type Culture Collection (Manassas, Virginia, United States of America). These viruses were grown in H9 cells to high titer, which was tested using a HIV p24 (high sensitivity) The detection kit used was sold under the tradename ALPHALISA® Detection Kit (PerkinElmer, Waltham, Massachusetts, United States of America). The viruses were concentrated using Lenti-X Concentrator (Takara Bio USA, Inc., Mountain View, California, United States of America). Infections of TZM-bl cells with either virus was facilitated with 15 μg/mL DEAE-dextran.
(§2) Compounds were serially diluted starting with 10 mM stocks in DMSO. DMSO concentrations were kept the same for all dilutions used within an assay (either 0.005% or 0.05% depending on highest concentration used). Duplicate 96-well plates were set up with 25 μL compound dilution, 25 μL virus, and 50 μL TZM-bl cells (2×10^5/mL) with DEAE-dextran and incubated at 37° C. 5% CO2 for 48 hr. All compounds were tested in triplicate, with single wells of efavirenz dilutions on each plate. All plates had 3-5 control wells without compound, 1 control well with no cells, and 1 control well with a highly toxic level of DMSO (9%). Inhibition assays were set up in clear tissue-culture treated plates with lysates moved to black assay plates or were set up in black tissue culture-treated plates. Medium was removed and the cells were lysed with Glo Lysis Buffer (Promega, Madison, Wisconsin, United States of America). Luciferase Assay System reagent (Promega, Madison, Wisconsin, United States of America) was added to cells and relative light units (RLU) was measured using an EnSpire instrument (PerkinElmer, Waltham, Massachusetts, United States of America). Toxicity assays were set up in clear tissue culture-treated plates. CellTiter-Blue Cell Viability Assay reagent (Promega) was added to the wells after 46 hr incubation, followed by 2 hr incubation. Sodium lauryl sulfate was added to 1.5% to stop the reaction and the plates were measured for fluorescence (560 nmEx/590 nmEm) using an EnSpire instrument (PerkinElmer, Waltham, Massachusetts, United States of America).

[2] = test system: HIV-1 IIIB A17 variant (Y181C/K103N); assay: HIV inhibition assay in TZM-bl cells, A17 variant; settings: Human immunodeficiency virus 1, IIIB, TZM-bl, read-out: IC50 (TZM, A17), Table 3, TZM-bl, ± SEM, minimum 6 replicates
Procedure: as §1, §2

[3] = test system: TZM-bl cells; assay: Toxicity assay in TZM-bl cells
Procedure: as §2

[4] = Table 3, TZM-bl, ± SEM, minimum 6 replicates

Compound | IC50 [1, 4] [nM] | IC50 [2] [nM] | Qualitative Cell Toxicity within inhibition range [3] | IC50 [1] [nM] | Qualitative Cell Toxicity within inhibition range ([3]; Table 3, TZM-bl)
CN(C)c1cccc2c(S(=O)(=O)n3nc(Nc4ccc(Cl)cc4)nc3N)cccc12 [Compound 23, N3-(4-chlorophenyl)-1-[[5-(dimethylamino)-1-naphthyl]sulfonyl]-1,2,4-triazole-3,5-diamine] | 10.3 ± 2.01 | > 1000 | None | – | –
N#C/C=C/c1ccc(Nc2nc(N)n(S(=O)(=O)c3cccc4cc(C#N)ccc34)n2)cc1 [Compound 10, 5-[[5-amino-3-[4-[(E)-2-cyanovinyl]anilino]-1,2,4-triazol-1-yl]sulfonyl]naphthalene-2-carbonitrile] | 1.52 ± 0.307 | 215 ± 57.4 | None | – | –
C=CC(=O)N(C)c1ccc(S(=O)(=O)n2nc(Nc3ccc(C#N)cc3)nc2N)cc1 [Compound 24, N-[4-[[5-amino-3-(4-cyanoanilino)-1,2,4-triazol-1-yl]sulfonyl]phenyl]-N-methyl-prop-2-enamide] | 7.88 ± 0.643 | – | None | – | –
Nc1nc(Nc2ccc(Cl)cc2)nn1S(=O)(=O)c1ccc(Br)cc1F [Compound 7, 1-(4-bromo-2-fluoro-phenyl)sulfonyl-N3-(4-chlorophenyl)-1,2,4-triazole-3,5-diamine] | 19.2 ± 2.83 | 562 | None | – | –
N#CCc1ccc2c(S(=O)(=O)n3nc(Nc4ccc(C#N)c(Cl)c4)nc3N)cccc2c1 [Compound 16, 4-[[5-amino-1-[[6-(cyanomethyl)-1-naphthyl]sulfonyl]-1,2,4-triazol-3-yl]amino]-2-chloro-benzonitrile] | – | 153 ± 59.2 | – | 0.598 ± 0.105 | None
N#Cc1ccc(Nc2nc(N)n(S(=O)(=O)c3c(Cl)nc4sccn34)n2)cc1Cl [Compound 11, 4-[[5-amino-1-(6-chloroimidazo[2,1-b]thiazol-5-yl)sulfonyl-1,2,4-triazol-3-yl]amino]-2-chloro-benzonitrile] | – | 175 ± 178 | – | 0.98 ± 0.245 | Low
N#CCc1ccc(Nc2nc(N)n(S(=O)(=O)c3cnc(Cl)nc3)n2)cc1 [Compound 49, 2-[4-[[5-amino-1-(2-chloropyrimidin-5-yl)sulfonyl-1,2,4-triazol-3-yl]amino]phenyl]-acetonitrile] | 108 ± 31.8 | > 1000 | None | – | –
N#Cc1ccc(Nc2nc(N)n(S(=O)(=O)c3ccc(C(F)(F)F)nc3)n2)c(Cl)c1 [Compound 45, 4-[[5-amino-1-[[6-(trifluoromethyl)-3-pyridyl]sulfonyl]-1,2,4-triazol-3-yl]amino]-3-chloro-benzonitrile] | 36.1 ± 8.67 | > 1000 | None | – | –
Cn1cnc(S(=O)(=O)n2nc(Nc3ccc(Cl)cc3)nc2N)c1 [Compound 28, N3-(4-chlorophenyl)-1-(1-methylimidazol-4-yl)sulfonyl-1,2,4-triazole-3,5-diamine] | 83.7 ± 19.3 | – | None | – | –
CC(=O)N1CCc2cc(S(=O)(=O)n3nc(Nc4ccc(Cl)cc4)nc3N)ccc21 [Compound 34, 1-[5-[[5-amino-3-(4-chloroanilino)-1,2,4-triazol-1-yl]sulfonyl]indolin-1-yl]ethanone] | 92.6 ± 15.5 | – | None | – | –
COc1ccc(Cl)cc1S(=O)(=O)n1nc(Nc2ccc(Cl)cc2)nc1N [Compound 38, 1-(5-chloro-2-methoxy-phenyl)sulfonyl-N3-(4-chlorophenyl)-1,2,4-triazole-3,5-diamine] | 177 ± 73.1 | > 1000 | None | – | –
Cc1cc(S(=O)(=O)n2nc(Nc3ccc(Cl)nc3)nc2N)c(C)cc1Cl [Compound 27, 1-(4-chloro-2,5-dimethyl-phenyl)sulfonyl-N3-(6-chloro-3-pyridyl)-1,2,4-triazole-3,5-diamine] | 34.3 ± 9.91 | > 1000 | None | – | –
Cc1cc(C)c(Nc2nc(N)n(S(=O)(=O)c3ccc(Br)c(C)c3)n2)c(C)c1 [Compound 31, 1-(4-bromo-3-methyl-phenyl)sulfonyl-N3-(2,4,6-trimethylphenyl)-1,2,4-triazole-3,5-diamine] | 19.4 ± 3.67 | – | None | – | –
Cc1nc(C)c(S(=O)(=O)n2nc(Nc3ccc(C#N)c(Cl)c3)nc2N)s1 [Compound 12, 4-[[5-amino-1-(2,4-dimethylthiazol-5-yl)sulfonyl-1,2,4-triazol-3-yl]amino]-2-chloro-benzonitrile] | – | 306 ± 107 | – | 0.879 ± 0.072 | None
N#Cc1ccc(Nc2nc(N)n(S(=O)(=O)c3cccc4nc(Cl)ccc34)n2)c(Cl)c1 [Compound 46, 4-[[5-amino-1-[(2-chloro-5-quinolyl)sulfonyl]-1,2,4-triazol-3-yl]amino]-3-chloro-benzonitrile] | 394 ± 264 | > 1000 | None | – | –
Nc1nc(Nc2ccc(Cl)cc2)nn1S(=O)(=O)c1cc(Cl)sc1Cl [Compound 41, N3-(4-chlorophenyl)-1-[(2,5-dichloro-3-thienyl)sulfonyl]-1,2,4-triazole-3,5-diamine] | 10.1 ± 1.69 | 3680 ± 10900 | None | – | –
Nc1nc(Nc2ccc(Cl)cc2)nn1S(=O)(=O)CCN1C(=O)c2ccccc2C1=O [Compound 35, 2-[2-[[5-amino-3-(4-chloroanilino)-1,2,4-triazol-1-yl]sulfonyl]ethyl]isoindoline-1,3-dione] | 14.3 ± 7.27 | – | None | – | –
N#Cc1ccc2c(S(=O)(=O)n3nc(Nc4c(Cl)cc(Cl)cc4Cl)nc3N)cccc2c1 [Compound 42, 5-[[5-amino-3-(2,4,6-trichloroanilino)-1,2,4-triazol-1-yl]sulfonyl]naphthalene-2-carbonitrile] | 28.1 ± 6.75 | > 1000 | None | – | –
N#Cc1ccc(Nc2nc(N)n(S(=O)(=O)c3ccc4ccccc4c3)n2)cc1Cl [Compound 3, 4-[[5-amino-1-(2-naphthylsulfonyl)-1,2,4-triazol-3-yl]amino]-2-chloro-benzonitrile] | – | 573 ± 130 | – | 1.57 ± 0.19 | None
Cc1nc(-c2ccc(S(=O)(=O)n3nc(Nc4ccc(C#N)cc4)nc3N)s2)cs1 [Compound 52] | 2.14 ± 0.812 | > 1000 | None | – | –
Nc1nc(Nc2ccc(Cl)cc2)nn1S(=O)(=O)c1cnc(Cl)c(Br)c1 [Compound 29, 1-[(5-bromo-6-chloro-3-pyridyl)sulfonyl]-N3-(4-chlorophenyl)-1,2,4-triazole-3,5-diamine] | 14.3 ± 7.27 | – | None | – | –
Nc1nc(Nc2ccc(Cl)cc2)nn1S(=O)(=O)c1cccc2nonc12 [Compound 37, 1-(2,1,3-benzoxadiazol-4-ylsulfonyl)-N3-(4-chlorophenyl)-1,2,4-triazole-3,5-diamine] | 10.2 ± 1.46 | > 1000 | None | – | –
Nc1nc(Nc2ccc(Cl)cc2)nn1S(=O)(=O)c1ccc(-c2ccc(F)cc2)cc1 [Compound 30, N3-(4-chlorophenyl)-1-[4-(4-fluorophenyl)phenyl]sulfonyl-1,2,4-triazole-3,5-diamine] | 21.5 ± 4.42 | – | None | – | –
C=CC(=O)Nc1cc(C)c(S(=O)(=O)n2nc(Nc3ccc(Cl)cc3)nc2N)c(C)c1 [Compound 26, N-[4-[[5-amino-3-(4-chloroanilino)-1,2,4-triazol-1-yl]sulfonyl]-3,5-dimethyl-phenyl]prop-2-enamide] | 5.78 ± 0.476 | – | None | – | –
Nc1nc(Nc2ccc(Cl)cc2)nn1S(=O)(=O)c1ccc2cc(Cl)ccc2c1 [Compound 25, 1-[(6-chloro-2-naphthyl)sulfonyl]-N3-(4-chlorophenyl)-1,2,4-triazole-3,5-diamine] | 4.54 ± 0.33 | – | None | – | –
